We go through five compounds from ChEMBL document CHEMBL3769345, “Rapid Synthesis of Boc-2',6'-dimethyl-l-tyrosine and Derivatives and Incorporation into Opioid Peptidomimetics” (ACS Med Chem Lett, 2015).

Usually Ki stands for a dissociation constant, usually derived from enzyme kinetics or from competition with a known ligand. Read a high Ki as weaker binding. Usually EC50 stands for the concentration giving half of the maximal effect.

The source made the active and inactive calls. No cut-off for these calls is given here.

The target in experiment [1] is T1, Kappa-type opioid receptor (Homo sapiens, UniProt P41145). The experiment can be described thus: Displacement of [3H]diprenorphine from human KOR expressed in CHO cells after 1 hr by liquid scintillation counting method. It counts as cell-based. In general terms: In a radioligand displacement assay an active substance lowers the binding of a labelled ligand.
For experiment [2], the target named is T1, Kappa-type opioid receptor. As to the kind of experiment: Agonist activity at human KOR expressed in CHO cells after 1 hr by [35S]GTPgammaS binding assay. It counts as functional, cell-based. Background: GTPγS is a poorly hydrolysed GTP analogue; its binding reports G protein activation.
Experiment [3] addresses Delta-type opioid receptor (Rattus norvegicus) (UniProt P33533). As to the kind of experiment: Agonist activity at rat DOR expressed in rat C6 cells at 10 uM after 1 hr by [35S]GTPgammaS binding assay relative to DPDPE. Format: functional, cell-based.
Experiment [4] has as its target T2, Delta-type opioid receptor (Rattus norvegicus, UniProt P33533). The experiment can be described thus: Displacement of [3H]diprenorphine from rat DOR expressed in rat C6 cells after 1 hr by liquid scintillation counting method. Format: cell-based.
Experiment [5] addresses T3, Mu-type opioid receptor (Rattus norvegicus, UniProt P33535). As to the kind of experiment: Displacement of [3H]diprenorphine from rat MOR expressed in rat C6 cells after 1 hr by liquid scintillation counting method. It counts as cell-based.
For experiment [6], the target named is T1, Kappa-type opioid receptor. The experiment can be described thus: Agonist activity at human KOR expressed in CHO cells at 10 uM after 1 hr by [35S]GTPgammaS binding assay relative to U69,593. It counts as functional, cell-based.
In experiment [7] the target is Mu-type opioid receptor (Rattus norvegicus) (UniProt P33535). As to the kind of experiment: Agonist activity at rat MOR expressed in rat C6 cells at 10 uM after 1 hr by [35S]GTPgammaS binding assay relative to DAMGO. It counts as functional, cell-based.
Experiment [8] concerns the target T2, Delta-type opioid receptor. The experiment can be described thus: Agonist activity at rat DOR expressed in rat C6 cells after 1 hr by [35S]GTPgammaS binding assay. It counts as functional, cell-based.
For experiment [9], the target named is T3, Mu-type opioid receptor. As to the kind of experiment: Agonist activity at rat MOR expressed in rat C6 cells after 1 hr by [35S]GTPgammaS binding assay. It counts as functional, cell-based.

Chain of Mu-type opioid receptor (Rattus norvegicus) (P33535 whole entry): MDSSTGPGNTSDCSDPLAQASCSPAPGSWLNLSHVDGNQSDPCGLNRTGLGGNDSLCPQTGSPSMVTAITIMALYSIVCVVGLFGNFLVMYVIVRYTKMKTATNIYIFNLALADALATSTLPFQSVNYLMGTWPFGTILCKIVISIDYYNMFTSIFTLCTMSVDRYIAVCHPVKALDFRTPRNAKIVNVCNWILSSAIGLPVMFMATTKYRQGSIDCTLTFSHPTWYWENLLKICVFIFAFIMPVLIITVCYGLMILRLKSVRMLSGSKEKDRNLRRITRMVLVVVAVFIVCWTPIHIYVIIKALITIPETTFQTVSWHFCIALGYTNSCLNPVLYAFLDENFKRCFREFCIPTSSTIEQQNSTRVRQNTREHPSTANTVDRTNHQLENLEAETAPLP
T3 sequence (P33535 whole entry): as above
T2 sequence (P33533 whole entry): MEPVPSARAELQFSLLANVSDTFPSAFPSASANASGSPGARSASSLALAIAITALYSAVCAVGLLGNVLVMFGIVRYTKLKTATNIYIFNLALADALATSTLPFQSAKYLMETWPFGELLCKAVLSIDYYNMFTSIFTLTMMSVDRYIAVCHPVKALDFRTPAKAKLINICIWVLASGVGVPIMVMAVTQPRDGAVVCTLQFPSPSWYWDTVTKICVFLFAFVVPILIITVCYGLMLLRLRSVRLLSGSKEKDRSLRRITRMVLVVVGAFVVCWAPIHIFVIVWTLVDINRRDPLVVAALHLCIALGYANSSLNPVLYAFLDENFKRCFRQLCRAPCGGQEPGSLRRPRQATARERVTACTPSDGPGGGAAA
T1 sequence (P41145 whole entry): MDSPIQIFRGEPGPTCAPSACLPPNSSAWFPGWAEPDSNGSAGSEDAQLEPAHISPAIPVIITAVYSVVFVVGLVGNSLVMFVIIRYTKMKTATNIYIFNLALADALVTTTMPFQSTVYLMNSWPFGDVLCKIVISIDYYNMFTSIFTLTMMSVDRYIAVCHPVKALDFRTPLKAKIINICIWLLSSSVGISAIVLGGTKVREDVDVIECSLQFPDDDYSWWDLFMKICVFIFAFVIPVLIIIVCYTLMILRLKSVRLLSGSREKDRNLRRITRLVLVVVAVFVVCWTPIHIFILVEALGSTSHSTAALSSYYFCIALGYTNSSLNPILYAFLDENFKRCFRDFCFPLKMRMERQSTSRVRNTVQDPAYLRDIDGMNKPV
Chain of Delta-type opioid receptor (Rattus norvegicus) (P33533 whole entry): as the sequence (P33533 whole entry) above

For `N[C@@H](Cc1c(Cl)cc(O)cc1Cl)C(=O)N[C@@H]1CCNc2ccc(Cc3ccccc3)cc21`, the figures for the Ki (in experiment [1]; in [4]; at Mu-type opioid receptor [5]) were 35 nM, 37 nM and 0.47 nM, respectively. Moreover, the EC50 in [2] was 1200 nM; in [8] (c6) it was “Not Active”; on Mu-type opioid receptor [9] it was 33 nM. Further, the max activation result in experiment [3] was “inactive”. In addition, the max activation in experiment [6] turned out to be 32%; in experiment [7], 83%.

As to `Cc1cc(C[C@H](N)C(=O)N[C@@H]2CCNc3ccc(Cc4ccccc4)cc32)c(C)cc1O`, the figures for the Ki (in experiment [1]; in experiment [4]; at Mu-type opioid receptor [5]) were 730 nM, 390 nM and 6.5 nM, respectively. Also, the EC50 was 370 nM in experiment [2], 5900 nM in experiment [8] (read-out: EC50) and 39 nM on Mu-type opioid receptor [9]. Also, the max activation in experiment [3] was determined as 53%; in experiment [6], 22%; in experiment [7], 89%.

As to `Cc1cccc(C)c1C[C@H](N)C(=O)N[C@@H]1CCNc2ccc(Cc3ccccc3)cc21`, the Ki stood at 130 nM in experiment [1], 660 nM in experiment [4] and 18 nM at Mu-type opioid receptor [5]. For the same compound, the EC50 in [2] is 4800 nM; in experiment [8] (c6), “Not Active”; at Mu-type opioid receptor [9], 280 nM. The max activation in experiment [6] came to 38%; in experiment [7], 86%.

For the compound `N[C@@H](Cc1ccc2cccc(O)c2c1)C(=O)N[C@@H]1CCNc2ccc(Cc3ccccc3)cc21`, the Ki in experiment [1] turned out to be 2500 nM; in experiment [4], 1600 nM; at Mu-type opioid receptor [5] it was 440 nM.

With `Cc1cc(O)ccc1C[C@H](N)C(=O)N[C@@H]1CCNc2ccc(Cc3ccccc3)cc21`, the values for the Ki (in experiment [1]; in experiment [4]; at Mu-type opioid receptor [5]) were 96 nM, 42 nM and 1.7 nM, respectively. Also, the EC50 is 2400 nM in experiment [2], “Not Active” in experiment [8] (c6) and 44 nM on Mu-type opioid receptor [9]. In addition, the max activation worked out at 41% in experiment [6] and 69% in experiment [7].
